Source: patent US9975903B2, “Condensed heterocyclic compound” (Takeda Pharmaceutical Company Limited, priority 2014, dated 2018)
Where a name gives a salt, the structure may show the parent alone.

Molecular target: T1, Human recombinant enteropeptidase (Homo sapiens, UniProt P98073)
T1 construct: purchased ITSI-Biosciences LLC #REN-260
Experiment: Human enteropeptidase inhibitory activity (Test Example 1)
Format: biochemical
Conditions: 3.3 μM test compound; inhibition rate from fluorescence intensity at 2 hours after the start of the reaction; read-out: 3.3 μM Inhibition
Procedure, shortened: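 Recombinant human enteropeptidase in 50 mM Tricine pH 8.0, 0.01% Tween 20, 10 mM CaCl2, with a 5FAM/CPQ2-quenched peptide substrate (2.1 μM solution before mixing). Compound came from 1 mM DMSO stock diluted 100-fold in buffer. Fluorescence (ex 485/em 535 nm) at 2 h gave % inhibition versus no-compound and no-enzyme controls.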

T1 sequence (P98073 whole entry): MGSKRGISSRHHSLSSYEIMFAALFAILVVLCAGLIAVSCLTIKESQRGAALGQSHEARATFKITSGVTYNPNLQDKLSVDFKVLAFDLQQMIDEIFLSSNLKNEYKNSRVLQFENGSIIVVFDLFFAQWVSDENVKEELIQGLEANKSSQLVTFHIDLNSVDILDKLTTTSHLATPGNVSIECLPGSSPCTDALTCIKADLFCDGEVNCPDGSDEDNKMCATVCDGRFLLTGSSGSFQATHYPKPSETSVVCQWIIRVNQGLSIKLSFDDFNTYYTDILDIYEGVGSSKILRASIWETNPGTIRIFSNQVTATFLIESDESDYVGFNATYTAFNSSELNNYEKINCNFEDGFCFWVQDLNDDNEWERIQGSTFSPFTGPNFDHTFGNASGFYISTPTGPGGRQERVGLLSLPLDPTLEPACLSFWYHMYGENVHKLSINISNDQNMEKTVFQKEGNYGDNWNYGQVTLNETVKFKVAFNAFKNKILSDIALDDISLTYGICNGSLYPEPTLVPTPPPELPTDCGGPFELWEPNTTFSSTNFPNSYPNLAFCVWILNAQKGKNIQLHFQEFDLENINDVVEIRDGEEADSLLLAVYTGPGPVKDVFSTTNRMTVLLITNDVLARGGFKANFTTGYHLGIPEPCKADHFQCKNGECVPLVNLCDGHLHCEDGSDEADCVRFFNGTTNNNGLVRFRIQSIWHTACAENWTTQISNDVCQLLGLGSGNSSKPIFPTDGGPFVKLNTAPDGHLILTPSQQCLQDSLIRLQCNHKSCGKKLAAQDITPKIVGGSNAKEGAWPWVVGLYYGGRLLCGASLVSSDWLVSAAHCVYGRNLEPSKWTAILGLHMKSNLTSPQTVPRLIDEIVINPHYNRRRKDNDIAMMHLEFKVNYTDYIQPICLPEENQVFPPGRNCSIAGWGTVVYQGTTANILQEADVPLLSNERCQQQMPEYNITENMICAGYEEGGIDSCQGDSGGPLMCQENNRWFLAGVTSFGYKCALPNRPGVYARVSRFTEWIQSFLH

| inhibition at 3.3 µM | SMILES |
| --- | --- |
| 101% | CN(C(=O)c1cccc2c1OCCCc1cc(NC(=N)N)ccc1C(=O)O2)[C@@H](CC(=O)O)C(=O)O [Example 85, N-((10-carbamimidamido-13-oxo-6,7,8,13-tetrahydrodibenzo[b,f] [1,4]dioxecin-4-yl)carbonyl)-N-methyl-L-aspartic acid] |
| 101% | N=C(N)Nc1ccc2c(c1)CCCOc1c(cccc1C(=O)N[C@@H](CO)C(=O)O)OC2=O [Example 86, N-((10-carbamimidamido-13-oxo-6,7,8,13-tetrahydro-dibenzo[b,f] [1,4]dioxecin-4-yl)carbonyl)-L-serine] |
| 101% | N=C(N)Nc1ccc2c(c1)CCCOc1c(cccc1C(=O)N[C@@H](Cc1ccccc1)C(=O)O)OC2=O [Example 87, N-((10-carbamimidamido-13-oxo-6,7,8,13-tetrahydro-dibenzo[b,f] [1,4]dioxecin-4-yl)carbonyl)-L-phenylalanine] |
| 102% | N=C(N)Nc1ccc2c(c1)CCCOc1c(cccc1C(=O)NCCC(=O)O)OC2=O [Example 88, N-((10-carbamimidamido-13-oxo-6,7,8,13-tetrahydro-dibenzo[b,f] [1,4]dioxecin-4-yl)carbonyl)-beta-alanine] |
| 101% | N=C(N)Nc1ccc2c(c1)CCCOc1c(cccc1C(=O)NCC(=O)O)OC2=O [Example 89, N-((10-carbamimidamido-13-oxo-6,7,8,13-tetrahydro-dibenzo[b,f] [1,4]dioxecin-4-yl)carbonyl)glycine] |
| 101% | C[C@@H](O)[C@H](NC(=O)c1cccc2c1OCCCc1cc(NC(=N)N)ccc1C(=O)O2)C(=O)O [Example 90, N-((10-carbamimidamido-13-oxo-6,7,8,13-tetrahydro-dibenzo[b,f] [1,4]dioxecin-4-yl)carbonyl)-L-threonine] |
| 102% | N=C(N)Nc1ccc2c(c1)CCCOc1c(CCC(=O)O)cccc1OC2=O [Example 91, 3-(10-Carbamimidamido-13-oxo-6,7,8,13-tetrahydrodibenzo[b,f][1,4]dioxecin-4-yl)propanoic acid trifluoroacetate] |
| 101% | N=C(N)Nc1ccc2c(c1)CCCOc1c(cccc1C(=O)N(CC(=O)O)[C@@H](Cc1ccc(O)cc1)C(=O)O)OC2=O [Example 92, N-((10-carbamimidamido-13-oxo-6,7,8,13-tetrahydro-dibenzo[b,f] [1,4]dioxecin-4-yl)carbonyl)-N-(carboxymethyl)-L-tyrosine] |
| 100% | N=C(N)Nc1ccc2c(c1)CCCOc1c(CCC(=O)N[C@@H](CCC(=O)O)C(=O)O)cccc1OC2=O [Example 93, N-(3-(10-carbamimidamido-13-oxo-6,7,8,13-tetrahydro-dibenzo[b,f] [1,4]dioxecin-4-yl)propanoyl)-L-glutamic acid] |
| 101% | N=C(N)Nc1ccc2c(c1)CCCOc1c(CCC(=O)N[C@@H](Cc3ccc(O)cc3)C(=O)O)cccc1OC2=O [Example 95, N-(3-(10-carbamimidamido-13-oxo-6,7,8,13-tetrahydro-dibenzo[b,f] [1,4]dioxecin-4-yl)propanoyl)-L-tyrosine] |
| 101% | N=C(N)Nc1ccc2c(c1)CCCOc1c(CCC(=O)NC(CC(=O)O)CC(=O)O)cccc1OC2=O [Example 96, 3-((3-(10-carbamimidamido-13-oxo-6,7,8,13-tetrahydro-dibenzo[b,f] [1,4]dioxecin-4-yl)propanoyl)amino) pentanedioic acid] |
| 100% | N=C(N)Nc1ccc2c(c1)CCCOc1c(CCC(=O)N[C@@H](CC(N)=O)C(=O)O)cccc1OC2=O [Example 97, N^~2^~-(3-(10-carbamimidamido-13-oxo-6,7,8,13-tetrahydro-dibenzo[b,f] [1,4]dioxecin-4-yl)propanoyl)-L-asparagine] |
| 95% | N=C(N)c1ccc2c(c1)CCCCc1c(C(=O)N[C@@H](CC(=O)O)C(=O)O)cccc1C(=O)O2 [Example 98, N-((10-carbamimidoyl-14-oxo-5,7,8,14-tetrahydro-6H-dibenzo[b,h]oxecin-4-yl)carbonyl)-L-aspartic acid] |
| 100% | N=C(N)Nc1ccc2c(c1)CCCOc1c(cccc1C(=O)N1CCC[C@H]1C(=O)N[C@@H](CC(=O)O)C(=O)O)OC2=O [Example 99, 1-((10-Carbamimidamido-13-oxo-6,7,8,13-tetrahydrodibenzo[b,f][1,4]dioxecin-4-yl)carbonyl)-L-prolyl-L-aspartic acid] |
| 101% | N=C(N)Nc1ccc2c(c1)CCCOc1c(cccc1C(=O)NCC(=O)N[C@@H](CC(=O)O)C(=O)O)OC2=O [Example 100, N-((10-carbamimidamido-13-oxo-6,7,8,13-tetrahydro-dibenzo[b,f] [1,4]dioxecin-4-yl)carbonyl)glycyl-L-aspartic acid] |
| 100% | N=C(N)Nc1ccc2c(c1)CCCOc1c(cccc1C(=O)N1CCC(C(=O)N[C@@H](CC(=O)O)C(=O)O)CC1)OC2=O [Example 101, N-((1-((10-carbamimidamido-13-oxo-6,7,8,13-tetrahydro-dibenzo[b,f] [1,4]dioxecin-4-yl)carbonyl)-piperidin-4-yl)carbonyl)-L-aspartic acid] |
| 101% | CN(C(=O)CCc1cccc2c1OCCCc1cc(NC(=N)N)ccc1C(=O)O2)[C@@H](CC(=O)O)C(=O)O [Example 102, N-(3-(10-carbamimidamido-13-oxo-6,7,8,13-tetrahydro-dibenzo[b,f] [1,4]dioxecin-4-yl)propanoyl)-N-methyl-L-aspartic acid] |
| 101% | CN(CC(=O)N[C@@H](CC(=O)O)C(=O)O)C(=O)c1cccc2c1OCCCc1cc(NC(=N)N)ccc1C(=O)O2 [Example 103, N-((10-carbamimidamido-13-oxo-6,7,8,13-tetrahydro-dibenzo[b,f] [1,4]dioxecin-4-yl)carbonyl)-N-methylglycyl-L-aspartic acid] |
| 100% | N=C(N)Nc1ccc2c(c1)CCCOc1c(cccc1C(=O)N(CC(=O)O)[C@@H](CC(=O)O)C(=O)O)OC2=O [Example 104, N-((10-Carbamimidamido-13-oxo-6,7,8,13-tetrahydrodibenzo[b,f][1,4]dioxecin-4-yl)carbonyl)-N-(carboxymethyl)-L-aspartic acid] |
| 101% | CN(CC(=O)N(C)[C@@H](CC(=O)O)C(=O)O)C(=O)c1cccc2c1OCCCc1cc(NC(=N)N)ccc1C(=O)O2 [Example 105, N-((10-carbamimidamido-13-oxo-6,7,8,13-tetrahydro-dibenzo[b,f] [1,4]dioxecin-4-yl)carbonyl)-N-methylglycyl-N-methyl-L-aspartic acid] |
| 100% | N=C(N)Nc1ccc2c(c1)CCCOc1c(cccc1C(=O)N(CC(=O)O)C(CC(=O)O)CC(=O)O)OC2=O [Example 106, 3-(((10-Carbamimidamido-13-oxo-6,7,8,13-tetrahydrodibenzo[b,f][1,4]dioxecin-4-yl)carbonyl) (carboxymethyl)amino)pentanedioic acid] |
| 101% | N=C(N)Nc1ccc2c(c1)CCCOc1c(cccc1C(=O)N(Cc1ccccc1)[C@@H](CC(=O)O)C(=O)O)OC2=O [Example 107, N-benzyl-N-((10-carbamimidamido-13-oxo-6,7,8,13-tetrahydro-dibenzo[b,f] [1,4]dioxecin-4-yl)carbonyl)-L-aspartic acid] |
| 100% | N=C(N)Nc1ccc2c(c1)CCCOc1c(cccc1C(=O)N(CC(=O)O)[C@@H](Cc1ccc(OCCN(CC(=O)O)CC(=O)O)cc1)C(=O)O)OC2=O [Example 108, O-(2-(Bis(carboxymethyl)amino)ethyl)-N-((10-carbamimidamido-13-oxo-6,7,8,13-tetrahydrodibenzo[b,f][1,4]dioxecin-4-yl)carbonyl)-N-(carboxymethyl)-L-tyrosine] |
| 100% | COCCN(C(=O)c1cccc2c1OCCCc1cc(NC(=N)N)ccc1C(=O)O2)[C@@H](CC(=O)O)C(=O)O [Example 109, N-((10-carbamimidamido-13-oxo-6,7,8,13-tetrahydro-dibenzo[b,f] [1,4]dioxecin-4-yl)carbonyl)-N-(2-methoxyethyl)-L-aspartic acid] |
| 100% | N=C(N)Nc1ccc2c(c1)CCCOc1c(ccc(CCC(=O)O)c1C(=O)N[C@@H](CC(=O)O)C(=O)O)OC2=O [Example 110, N-((10-Carbamimidamido-3-(2-carboxyethyl)-13-oxo-6,7,8,13-tetrahydrodibenzo[b,f][1,4]dioxecin-4-yl)carbonyl)-L-aspartic acid] |
| 100% | N=C(N)Nc1ccc2c(c1)CCCOc1c(ccc(CCC(=O)O)c1C(=O)O)OC2=O [Example 111, 10-carbamimidamido-3-(2-carboxyethyl)-13-oxo-6,7,8,13-tetrahydro-dibenzo[b,f] [1,4]dioxecine-4-carboxylic acid] |
| 99% | COc1ccc(C[C@H](NC(=O)c2c(CCC(=O)O)ccc3c2OCCCc2cc(NC(=N)N)ccc2C(=O)O3)C(=O)O)cc1 [Example 112, N-((10-carbamimidamido-3-(2-carboxyethyl)-13-oxo-6,7,8,13-tetrahydro-dibenzo[b,f] [1,4]dioxecin-4-yl)carbonyl)-O-methyl-L-tyrosine] |
| 99% | N=C(N)Nc1ccc2c(c1)CCCOc1c(ccc(CCC(=O)O)c1C(=O)N[C@@H](Cc1ccc(O)cc1)C(=O)O)OC2=O [Example 113, N-((10-carbamimidamido-3-(2-carboxyethyl)-13-oxo-6,7,8,13-tetrahydro-dibenzo[b,f] [1,4]dioxecin-4-yl)carbonyl)-L-tyrosine] |
| 99% | N#Cc1cc2c(c(C(=O)N[C@@H](CC(=O)O)C(=O)O)c1)OCCCc1cc(NC(=N)N)ccc1C(=O)O2 [Example 114, N-((10-Carbamimidamido-2-cyano-13-oxo-6,7,8,13-tetrahydrodibenzo[b,f][1,4]dioxecin-4-yl)carbonyl)-L-aspartic acid] |
